Source: publication PMC9822194, “Chemoselective Synthesis of Mannich Adducts from 1,4-Naphthoquinones and Profile as Autophagic Inducers in Oral Squamous Cell Carcinoma” (Molecules, 2022)
Where two headings read alike, the source gives them in different places.

Legend:
SCC-9 (OSCC cells) = assay: MTT cell viability assay (cytotoxicity), SCC9; assay type: cell-based, Human; conditions: for Selective Index (S.I.): IC50 normal oral fibroblasts/IC50 SCC-9
Protocol: (§1) Cells and reagents. Human SCC-4, SCC-9 and SCC-25 cells, derived from a human oral tongue SCC were obtained from the ATCC (CRL-1624; CRL-1629 and CRL-1628, respectively) and maintained at 1:1 DMEM/F12 (Dulbecco’s modified Eagle medium and Ham’s F12 medium; Gibco, Thermo Fisher, Waltham, MA, USA) supplemented with 10% (v/v) FBS (fetal bovine serum; Invitrogen, Thermo Fisher, Waltham, MA, USA) and 400 ng/mL hydrocortisone (Sigma-Aldrich Co., St. Louis, MO, USA). Primary normal human gingival fibroblasts were obtained from the ATCC (PCS-201-018), maintained in DMEM supplemented with 10% (v/v) FBS, and used in a maximum of 6 passages. Cells were grown in a humidified environment containing 5% CO2 at 37 °C. […] Carboplatin in water (Fauldcarbo®; Libbs Farmacêutica, São Paulo, SP, Brazil) was used as a standard anticancer compound.
(§2) Cell viability assay (cytotoxicity) and stability assay. To assess cell viability, cells were grown in triplicate in 96-well plates (5 × 10^3 cells/well) until confluence when treated with the different compounds as in Machado et al.. Briefly, DMSO in the same concentrations was used as a 100% cell viability control. After 48 h, cells were incubated with 5 mg/mL MTT reagent (3-(4,5-dimethyl-2-thiazolyl)-2,5-diphenyl-2H-tetrazolium bromide) (Sigma-Aldrich Co., St. Louis, MO, USA) for 3.5 h. Formazan crystals were dissolved in MTT solvent (DMSO/methanol 1:1 v/v) and the absorbance at 560 nm was evaluated using an EPOCH microplate spectrophotometer (BioTek Instruments, Winooski, VT, USA) with background absorbance at 670 nm subtracted. Each of the eighteen compounds was tested at six or seven different concentrations, ranging from 0.3 µM to 200 µM in cancer cell lines (SCC-4, SCC-9 and SCC-25) and 0.4 µM to 300 µM in normal primary human gingival fibroblast.
(§3) Statistical analysis, IC50 calculation. IC50 values for MTT assays were obtained by non-linear regression using the GraphPad Prism 5.0 software (GraphPad, San Diego, CA, USA) from at least three independent experiments. Data are presented as means ± SD. A dose-response (inhibitor) vs response curve using the least squares method was used to determine the IC50, SD and R2 of the data. The selectivity index was calculated as S.I. = IC50 of the compound in normal oral fibroblast cells/IC50 of the same compound for each oral cancer cell line (SCC-4, SCC-9 and SCC-25) and the mean was calculated when indicated.

[1] = system: normal human gingival fibroblasts; assay: MTT cell viability assay, normal fibroblasts; assay type: cell-based; conditions: 48 h
Protocol: as §1, §2, §3

SCC-25 cells = assay: MTT cell viability assay, SCC25; assay type: cell-based, Human; conditions: read-out: SCC25 IC50
Protocol: as §1, §2, §3

SCC-4 cells = assay: MTT cell viability assay, SCC4; assay type: cell-based, Human; conditions: read-out: SCC4 IC50
Protocol: as §1, §2, §3

[2] = system: OSCC cell lines (SCC 4, SCC-9 and SCC-25); assay: MTT assay, mean over three OSCC cell lines and average selectivity index; assay type: cell-based, Human; conditions: for Average S.I.: average selectivity index over SCC-4, SCC-9, SCC-25 vs normal fibroblasts; for IC50: mean of SCC9, SCC25, SCC4, read-out: Oral Tumor Cells Mean IC50
Protocol: as §2, §3

SCC9 cells [3] = assay: Clonogenic assay, SCC9; assay type: cell-based, Human; conditions: 2 × IC50, 5 days
Protocol: (§4) Clonogenic assay. The SCC9 strain and primary human fibroblasts were grown in duplicates in 24-well plates (5 × 10^4 cells/well) and incubated for 24 h. […] DMSO was used at the same concentrations as a control for 100% of viability. After 5 days of incubation, the culture medium was removed and the cells were fixed with absolute ethanol (500 µL) for 10 min, then stained with crystal 0.05% violet (Sigma Aldrich) in 20% ethanol (500 µL) for 10 min and washed with distilled water. The plates were scanned to quantify the inhibition of the formation of colonies. Then, crystal violet was solubilized in 33% acetic acid and added to the 96-well plate. Finally, the absorbance was read in a spectrophotometer (EPOCH, BioTek Instruments, Winooski, VT, USA) (595 nm).

[4] = system: primary human fibroblasts; assay: Clonogenic assay, primary human fibroblasts; assay type: cell-based; conditions: 2 × IC50, 5 days, normal fibroblasts
Protocol: as §4

SCC9 cells [5] = assay: Stability test (pre-incubation at 37 °C, then MTT on SCC9); assay type: cell-based, Human; conditions: 2 × IC50 pre-incubated 0-48 h at 37 °C, then SCC9 48 h
Protocol: After the desired treatment time was reached, the medium containing the compound was replaced with untreated culture medium and the MTT assay was performed at the end of both experiments.

[6] = MTT, 48 h, Table 1, read-out: SCC9—Oral Cancer IC50
[7] = MTT, Table 1, read-out: Primary Gengival Fibroblast IC50
[8] = Homo sapiens, SCC-9, MTT, 48 h, Table 1, read-out: SCC9—Oral Cancer IC50
[9] = Homo sapiens, Fibroblast, MTT, Table 1, read-out: Primary Gengival Fibroblast IC50

Compound	Selective Index (S.I.) (SCC-9 (OSCC cells))	IC50 (SCC-9 (OSCC cells); [6])	IC50 [1, 7]	IC50 (SCC-9 (OSCC cells); [8])	IC50 [1, 9]	other results
Methyl benzyl((3-chloro-phenyl)(3-((methoxycarbonyl)oxy)-1,4-dioxo-1,4-dihydronaphthalen-2-yl)methyl)carbamate [6i]	1.03	70.7 µM	73.5 µM			
COC(=O)N(Cc1ccccc1)C(C1=C(O)C(=O)c2ccccc2C1=O)c1ccc(F)cc1 (stereo not shown) [6e]	2.68			73.2 µM	197 µM	
COC(=O)OC1=C(C(c2cccc(Cl)c2)N(Cc2ccccc2)C(=O)OC)C(=O)c2ccccc2C1=O (stereo not shown) [5i, Methylbenzyl((3-chlorophenyl)(3-((methoxycarbonyl)oxy)-1,4-dioxo-1,4-dihydronaphthalen-2-yl)methyl)carbamate]	1.77			23.9 µM	42.6 µM	
Methyl benzyl((phenyl)(3-((methoxycarbonyl)oxy)-1,4-dioxo-1,4-dihydronaphthalen-2-yl)methyl)carbamate [6b]	2.79	82.2 µM	230 µM			
Methylbenzyl((3-((methoxycarbonyl)oxy)-1,4-dioxo-1,4-dihydronaphthalen-2-yl)(m-tolyl) methyl)carbamate [5h]	1.97	24.9 µM	49.1 µM			
Methyl benzyl((3-methyl-phenyl)(3-((methoxycarbonyl)oxy)-1,4-dioxo-1,4-dihydronaphthalen-2-yl)methyl)carbamate [6h]	4.83	11.1 µM	53.7 µM			IC50 ([1]; MTT, Table 2, read-out: Primary Gingival Fibroblast IC50): 53.7 µM; IC50 (SCC-25 cells; MTT, 48 h): 56.6 µM; IC50 (SCC-4 cells; MTT, 48 h): 98.4 µM; Average S.I. [2]: 1.29
N.N.O=C([O-])C1(C(=O)[O-])CCC1.[Pt+2] [Carboplatin]	0.85	223 µM	193 µM			IC50 (SCC-25 cells; MTT, 48 h): 264 µM; IC50 (SCC-4 cells; MTT, 48 h): 195 µM; Average S.I. [2]: 0.85; Average S.I. ([2]; listed as carboplatin): 0.847; IC50 [2]: 228 µM; Cytotoxicity in clonogenic assay (colony formation) (SCC9 cells [3]): high cytotoxicity; Cells viable and able to form colonies [4]: less than 50%; Stability at 37 °C (retained cytotoxicity) (SCC9 cells [5]): stable even after 48 h
COc1cccc2c1C(=O)c1c(O)c3c(c(O)c1C2=O)C[C@@](O)(C(=O)CO)C[C@@H]3O[C@H]1C[C@H](N)[C@H](O)[C@H](C)O1 [Doxorubicin]	2.57			7.2 µM	18.7 µM	IC50 (SCC-25 cells; Homo sapiens, SCC-25, MTT, 48 h): 1.12 µM; IC50 (SCC-4 cells; Homo sapiens, SCC-4, MTT, 48 h): 5.87 µM; IC50 ([2]; Homo sapiens): 4.73 µM; Average S.I. [2]: 3.94; Stability at 37 °C (retained cytotoxicity) (SCC9 cells [5]): stable even after 48 h
COC(=O)OC1=C(C(c2ccc([N+](=O)[O-])cc2)N(Cc2ccccc2)C(=O)OC)C(=O)c2ccccc2C1=O (stereo not shown) [5c, Methylbenzyl((3-((methoxycarbonyl)oxy)-1,4-dioxo-1,4-dihydronaphthalen-2-yl)(4-nitrophenyl)methyl)carbamate]	1.54			24.8 µM	38.3 µM	
COC(=O)OC1=C(C(c2ccc(F)cc2)N(Cc2ccccc2)C(=O)OC)C(=O)c2ccccc2C1=O (stereo not shown) [5e, Methylbenzyl((4-fluorophenyl)(3-((methoxycarbonyl)oxy)-1,4-dioxo-1,4-dihydronaphthalen-2-yl)methyl)carbamate]	1.81			22.1 µM	40.1 µM	
CC(C)=CCC1=C(O)C(=O)c2ccccc2C1=O [Lapachol, reference compound]	2.41					IC50 (SCC-9 (OSCC cells); Homo sapiens, SCC-9, 48 h, read-out: SCC9 IC50): 42.1 µM; IC50 (SCC-9 (OSCC cells); Homo sapiens, SCC-9, 48 h, read-out: SCC9—Oral Cancer IC50): 42.1 µM; IC50 ([1]; Homo sapiens, Fibroblast, read-out: Primary Gengival Fibroblast IC50): 102 µM; IC50 (SCC-25 cells; Homo sapiens, SCC-25, 48 h): 85.9 µM; IC50 (SCC-4 cells; Homo sapiens, SCC-4, 48 h): 55.3 µM; IC50 ([2]; Homo sapiens): 61.1 µM; Average S.I. [2]: 1.66
COC(=O)OC1=C(C(c2ccccc2)N(Cc2ccccc2)C(=O)OC)C(=O)c2ccccc2C1=O (stereo not shown) [5b, Methylbenzyl((3-((methoxycarbonyl)oxy)-1,4-dioxo-1,4-dihydronaphthalen-2yl)(phenyl)methyl)carbamate]	1.95			28.5 µM	55.7 µM	
COC(=O)OC1=C(C(c2ccc(OC)cc2)N(Cc2ccccc2)C(=O)OC)C(=O)c2ccccc2C1=O (stereo not shown) [5g, Methylbenzyl((3-((methoxycarbonyl)oxy)-1,4-dioxo-1,4-dihydronaphthalen-2-yl)(4-methoxyphenyl)methyl)carbamate]	1.68			21 µM	35.5 µM	
COC(=O)OC1=C(C(c2ccc(Br)cc2)N(Cc2ccccc2)C(=O)OC)C(=O)c2ccccc2C1=O (stereo not shown) [5d, Methylbenzyl((4-bromophenyl)(3-((methoxycarbonyl)oxy)-1,4-dioxo-1,4-dihydronaphthalen-2-yl)methyl)carbamate]	1.78			38.8 µM	69.1 µM	
COC(=O)OC1=C(C(c2ccc(C)cc2)N(Cc2ccccc2)C(=O)OC)C(=O)c2ccccc2C1=O (stereo not shown) [5f, Methylbenzyl((3-((methoxycarbonyl)oxy)-1,4-dioxo-1,4-dihydronaphthalen-2-yl)(p-tolyl)methyl)carbamate]	2.05			22.2 µM	45.7 µM	
Methyl benzyl((4-nitrophenyl)(3-((methoxycarbonyl)oxy)-1,4-dioxo-1,4-dihydronaphthalen-2-yl)methyl)carbamate [6c]	2.63	56.1 µM	148 µM			
Methyl benzyl((4-chlorophenyl)(3-((methoxycarbonyl)oxy)-1,4-dioxo-1,4-dihydronaphthalen-2-yl)methyl)carbamate [5a]	1.61	23.2 µM	37.5 µM			
